Data from ChEMBL document CHEMBL6153124, “Structural Chemistry of Helicase Inhibition” (J Med Chem, 2025).
pEC50, pIC50, pKd: −log10 of the molar value.

How the values were obtained:
[1] = Inhibition of Coxsackievirus B3 2C protein
[2] = molecular target: SWI/SNF-related matrix-associated actin-dependent regulator of chromatin subfamily A member 2 (Homo sapiens, UniProt P51531); test: Inhibition of SMARCA2 (unknown origin)
[3] = Inhibition of HSV-1 helicase DNA dependent ATPase activity assessed as reduction in helicase-primase complex; design: species or system Human alphaherpesvirus 1
[4] = molecular target: T1, Bifunctional 3'-5' exonuclease/ATP-dependent helicase WRN (Homo sapiens, UniProt Q14191); test: Inhibition of N-terminal Hexa-histidine-tagged human recombinant WRN helicase domain (517 to 945 residues) extracted from Baculovirus infected Sf9 cells by fluorescence based analysis
[5] = molecular target: T1, Bifunctional 3'-5' exonuclease/ATP-dependent helicase WRN; test: Inhibition of N-terminal WRN (unknown origin)
[6] = molecular target: Eukaryotic initiation factor 4A-I (Homo sapiens, UniProt P60842); test: Inhibition of recombinant full length 6xHis-tagged EIF4A1 (unknown origin) by FP assay
[7] = Binding affinity to Coxsackievirus B3 2C protein assessed as dissociation constant

Chain of Eukaryotic initiation factor 4A-I (P60842 whole entry): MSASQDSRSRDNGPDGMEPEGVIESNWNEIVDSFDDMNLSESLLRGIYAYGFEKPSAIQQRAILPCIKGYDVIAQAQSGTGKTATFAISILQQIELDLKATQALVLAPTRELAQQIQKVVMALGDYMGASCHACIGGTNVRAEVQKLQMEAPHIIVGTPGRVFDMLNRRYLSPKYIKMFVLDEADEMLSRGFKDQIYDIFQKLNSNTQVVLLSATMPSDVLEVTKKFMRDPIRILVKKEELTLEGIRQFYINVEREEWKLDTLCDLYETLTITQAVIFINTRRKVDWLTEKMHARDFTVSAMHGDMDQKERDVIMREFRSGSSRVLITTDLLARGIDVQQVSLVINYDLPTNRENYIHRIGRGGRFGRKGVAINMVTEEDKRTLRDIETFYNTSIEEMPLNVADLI
T1 sequence (Q14191 whole entry, the tested form may be a part): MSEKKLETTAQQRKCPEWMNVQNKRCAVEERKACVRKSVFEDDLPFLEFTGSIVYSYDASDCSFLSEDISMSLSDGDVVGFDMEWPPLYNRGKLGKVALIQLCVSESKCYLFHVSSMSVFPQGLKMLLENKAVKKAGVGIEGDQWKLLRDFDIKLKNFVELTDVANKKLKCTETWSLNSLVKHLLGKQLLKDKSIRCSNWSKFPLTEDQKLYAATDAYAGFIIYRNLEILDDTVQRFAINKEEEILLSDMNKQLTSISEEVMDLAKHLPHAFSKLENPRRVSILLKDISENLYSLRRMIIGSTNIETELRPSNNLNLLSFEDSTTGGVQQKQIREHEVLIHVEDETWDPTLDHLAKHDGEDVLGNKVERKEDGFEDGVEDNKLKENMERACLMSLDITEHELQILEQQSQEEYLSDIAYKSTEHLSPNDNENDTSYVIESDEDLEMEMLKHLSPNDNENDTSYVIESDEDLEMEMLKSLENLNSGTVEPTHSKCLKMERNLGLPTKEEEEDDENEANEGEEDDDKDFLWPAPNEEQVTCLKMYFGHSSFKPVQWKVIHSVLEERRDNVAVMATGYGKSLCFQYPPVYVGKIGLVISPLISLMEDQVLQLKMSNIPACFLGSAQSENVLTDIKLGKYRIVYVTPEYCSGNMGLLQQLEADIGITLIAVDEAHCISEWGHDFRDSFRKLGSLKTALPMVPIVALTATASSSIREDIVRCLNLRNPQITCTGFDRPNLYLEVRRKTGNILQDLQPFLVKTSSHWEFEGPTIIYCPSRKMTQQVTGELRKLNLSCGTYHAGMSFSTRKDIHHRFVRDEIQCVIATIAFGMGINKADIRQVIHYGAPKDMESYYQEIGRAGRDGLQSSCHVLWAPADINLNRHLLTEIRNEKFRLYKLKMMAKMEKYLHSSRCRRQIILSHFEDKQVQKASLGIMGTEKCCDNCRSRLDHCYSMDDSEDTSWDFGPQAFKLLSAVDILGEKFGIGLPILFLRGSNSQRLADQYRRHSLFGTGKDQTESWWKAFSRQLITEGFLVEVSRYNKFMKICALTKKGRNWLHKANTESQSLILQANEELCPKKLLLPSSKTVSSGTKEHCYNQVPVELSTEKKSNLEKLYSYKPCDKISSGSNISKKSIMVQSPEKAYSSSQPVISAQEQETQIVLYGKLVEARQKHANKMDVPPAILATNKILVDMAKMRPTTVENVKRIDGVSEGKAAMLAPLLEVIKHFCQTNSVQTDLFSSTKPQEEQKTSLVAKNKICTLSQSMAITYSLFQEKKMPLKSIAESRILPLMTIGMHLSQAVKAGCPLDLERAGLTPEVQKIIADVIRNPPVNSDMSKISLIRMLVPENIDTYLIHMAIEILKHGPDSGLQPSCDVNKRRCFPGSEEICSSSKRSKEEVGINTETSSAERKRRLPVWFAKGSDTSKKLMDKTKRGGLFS
Chain of SWI/SNF-related matrix-associated actin-dependent regulator of chromatin subfamily A member 2 (P51531 whole entry): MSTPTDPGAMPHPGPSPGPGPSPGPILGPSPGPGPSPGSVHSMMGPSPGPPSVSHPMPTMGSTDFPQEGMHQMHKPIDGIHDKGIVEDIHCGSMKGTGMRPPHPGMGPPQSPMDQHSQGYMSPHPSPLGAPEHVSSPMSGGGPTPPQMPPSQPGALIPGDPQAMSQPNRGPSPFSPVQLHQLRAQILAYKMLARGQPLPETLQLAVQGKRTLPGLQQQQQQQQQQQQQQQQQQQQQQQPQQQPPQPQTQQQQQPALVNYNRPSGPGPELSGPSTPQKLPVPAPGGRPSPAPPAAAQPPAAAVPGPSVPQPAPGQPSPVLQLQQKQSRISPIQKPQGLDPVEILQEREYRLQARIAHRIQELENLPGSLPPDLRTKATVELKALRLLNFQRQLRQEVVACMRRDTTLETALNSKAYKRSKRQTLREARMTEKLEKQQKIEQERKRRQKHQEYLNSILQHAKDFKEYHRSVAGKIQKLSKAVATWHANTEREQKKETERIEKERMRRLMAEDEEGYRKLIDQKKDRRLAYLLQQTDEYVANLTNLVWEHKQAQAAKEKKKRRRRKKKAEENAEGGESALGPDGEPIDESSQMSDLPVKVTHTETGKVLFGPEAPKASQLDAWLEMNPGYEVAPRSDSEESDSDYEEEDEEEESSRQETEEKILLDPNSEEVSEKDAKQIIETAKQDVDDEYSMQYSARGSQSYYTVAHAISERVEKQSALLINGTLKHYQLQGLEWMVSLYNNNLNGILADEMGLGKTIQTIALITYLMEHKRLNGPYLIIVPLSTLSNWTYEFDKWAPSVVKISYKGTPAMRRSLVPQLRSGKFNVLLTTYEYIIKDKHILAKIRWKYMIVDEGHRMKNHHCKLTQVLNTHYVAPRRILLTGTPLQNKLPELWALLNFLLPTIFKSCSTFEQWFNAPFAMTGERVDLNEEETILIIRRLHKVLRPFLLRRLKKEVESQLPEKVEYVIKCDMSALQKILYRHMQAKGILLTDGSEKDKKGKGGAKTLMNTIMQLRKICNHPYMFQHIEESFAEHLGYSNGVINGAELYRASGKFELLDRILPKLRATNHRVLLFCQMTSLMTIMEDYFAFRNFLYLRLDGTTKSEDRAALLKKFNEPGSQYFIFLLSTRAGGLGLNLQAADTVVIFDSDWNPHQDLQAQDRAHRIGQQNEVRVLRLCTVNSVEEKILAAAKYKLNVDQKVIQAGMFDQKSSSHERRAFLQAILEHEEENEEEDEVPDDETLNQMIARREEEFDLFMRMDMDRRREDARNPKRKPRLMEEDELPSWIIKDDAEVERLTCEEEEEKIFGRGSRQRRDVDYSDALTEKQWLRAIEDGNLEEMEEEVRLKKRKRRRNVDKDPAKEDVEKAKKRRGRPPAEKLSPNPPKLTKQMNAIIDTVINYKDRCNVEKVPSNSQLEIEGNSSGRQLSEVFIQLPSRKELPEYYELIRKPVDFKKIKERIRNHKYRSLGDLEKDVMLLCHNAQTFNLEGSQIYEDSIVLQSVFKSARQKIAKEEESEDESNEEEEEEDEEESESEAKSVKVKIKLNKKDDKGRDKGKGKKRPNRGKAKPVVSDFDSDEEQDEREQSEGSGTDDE

With CNCC[C@H](Oc1ccc(C(F)(F)F)cc1)c1ccccc1 the pEC50 [1] was 5.30.

In the case of O=C(Nc1cc(C(F)F)ns1)Nc1cc(F)ncc1CO, the pIC50 [2] was greater than 8.30.

Cc1cccc(C)c1N(CC(=O)Nc1ccc(-c2ncon2)cc1)C(=O)C1CCS(=O)(=O)CC1 gave a pIC50 [3] of 7.11.

Molecule CS(=O)(=O)CC[C@@H](NC(=O)c1cnc(C(F)(F)F)nc1Oc1ccccc1)C1CC1 has a pIC50 [4] of 6.85 and a pIC50 [5] of 6.85.

CC(/C=C/C(C)=C/[C@@H]1Cc2nc(cs2)CC[C@@H](N)CC(=O)O[C@@H](C)C/C(C)=C/C=C\C(=O)O1)=C\CN(C)C showed a pIC50 [6] of 9.00.

With CNCCC(Oc1ccc(C(F)(F)F)cc1)c1ccccc1 (centres undefined) [FLUOXETINE] the pKd [7] was 5.02 and the pEC50 [1] was roughly 5.30.

COC(=O)[C@H]1[C@@H](O)[C@@]2(O)c3c(OC)cc(O[C@@H]4O[C@@H]([C@H](O)CO)CO[C@H]4OC)cc3O[C@@]2(c2ccc(OC)cc2)[C@@H]1c1ccccc1 [SILVESTROL] showed a pIC50 [6] of 7.22.
